In US8058475B2, “Substituted cyclohexylmethyl compounds” (Gruenenthal GmbH, priority 2005, dated 2011):
Read-outs that look alike come from different tables or passages of the source.

Target: human μ-opiate receptor (Homo sapiens, UniProt P35372)
Test: Affinity for the human μ-opiate receptor ([3H]-naloxone displacement, SPA, CHO-K1 membrane preparation)
Type: binding
Settings: for inhibition at 1 µM: read-out: μ-Opioid receptor, % inhibition [1 μM]; for Ki: read-out: μ-Opioid receptor, Ki

human μ-opiate receptor, sequence (P35372 whole entry): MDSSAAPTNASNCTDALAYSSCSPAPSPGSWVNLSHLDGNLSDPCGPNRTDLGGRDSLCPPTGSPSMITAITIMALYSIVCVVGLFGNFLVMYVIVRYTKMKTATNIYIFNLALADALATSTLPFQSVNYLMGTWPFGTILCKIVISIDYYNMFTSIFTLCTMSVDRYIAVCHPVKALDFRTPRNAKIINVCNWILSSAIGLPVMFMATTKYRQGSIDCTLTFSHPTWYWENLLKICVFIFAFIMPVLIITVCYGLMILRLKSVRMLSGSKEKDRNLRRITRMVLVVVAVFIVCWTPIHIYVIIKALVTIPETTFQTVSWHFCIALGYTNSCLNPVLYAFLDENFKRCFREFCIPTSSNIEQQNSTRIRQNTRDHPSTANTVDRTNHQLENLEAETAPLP

| Structure (SMILES) | inhibition at 1 µM | Ki | μ-Opioid receptor, % inhibition [1 μM] | μ-Opioid receptor, % inhibition [1 μM] (1 µM) |
| --- | --- | --- | --- | --- |
| CN(C)C(c1ccccc1)C1CCC(NC(=O)c2cc(C(F)(F)F)ccc2F)CC1 (stereo not drawn) [compound 205, N-[4-(dimethylamino-phenyl-methyl)-cyclohexyl]-2-fluoro-5-trifluoromethyl-benzamide] | 94% | 22 nM |  |  |
| CN(C)C(c1ccccc1)C1CCC(NC(=O)Cc2ccc(Cl)cc2)CC1 (stereo not drawn) [compound 206, 2-(4-chloro-phenyl)-N-[4-(dimethylamino-phenyl-methyl)-cyclohexyl]-acetamide] | 93% | 56 nM |  |  |
| COc1ccccc1C(=O)NC1CCC(C(c2cccs2)N(C)C)CC1 (stereo not drawn) [compound 207, N-[4-(dimethylamino-thiophen-2-yl-methyl)-cyclohexyl]-2-methoxy-benzamide] | 92% | 28 nM |  |  |
| CSc1ncccc1C(=O)NC1CCC(C(c2cccs2)N(C)C)CC1 (stereo not drawn) [compound 208, N-[4-(dimethylamino-thiophen-2-yl-methyl)-cyclohexyl]-2-methylsulfanyl-nicotinamide] | 92% | 130 nM |  |  |
| CN(C)C(c1cccc(F)c1)C1CCC(NC(=O)c2ccc(Cl)c(Cl)c2)CC1 (stereo not drawn) [compound 209, 3,4-dichloro-N-{4-[dimethylamino-(3-fluoro-phenyl)-methyl]-cyclohexyl}-benzamide] | 92% | 47 nM |  |  |
| COc1c(C(=O)NC2CCC(C(c3ccc(F)cc3)N(C)C)CC2)csc1Cl (stereo not drawn) [compound 211, 5-chloro-4-methoxy-thiophene-3-carboxylic acid {4-[dimethylamino-(4-fluoro-phenyl)-methyl]-cyclohexyl}-amide] | 92% |  |  |  |
| COc1cc(C(=O)NC2CCC(C(c3cccs3)N(C)C)CC2)cc(OC)c1OC (stereo not drawn) [compound 212, N-[4-(dimethylamino-thiophen-2-yl-methyl)-cyclohexyl]-3,4,5-trimethoxy-benzamide] | 91% | 19 nM |  |  |
| CCSc1ncccc1C(=O)NC1CCC(C(c2cccs2)N(C)C)CC1 (stereo not drawn) [compound 213, N-[4-(dimethylamino-thiophen-2-yl-methyl)-cyclohexyl]-2-ethylsulfanyl-nicotinamide] | 91% | 96 nM |  |  |
| Cc1oc(-c2ccccc2)cc1C(=O)NC1CCC(C(c2ccccc2)N(C)C)CC1 (stereo not drawn) [compound 214, 2-methyl-5-phenyl-furan-3-carboxylic acid [4-(dimethylamino-phenyl-methyl)-cyclohexyl]-amide] | 91% | 28 nM |  |  |
| COc1ccc(C(=O)NC2CCC(C(c3ccccc3)N(C)C)CC2)c(OC)c1 (stereo not drawn) [compound 216, N-[4-(dimethylamino-phenyl-methyl)-cyclohexyl]-2,4-dimethoxy-benzamide] | 90% | 56 nM |  |  |
| CN(C)C(c1ccccc1)C1CCC(NC(=O)c2ccc(C(C)(C)C)cc2)CC1 (stereo not drawn) [compound 217, 4-tert-butyl-N-[4-(dimethylamino-phenyl-methyl)-cyclohexyl]-benzamide] | 90% | 62 nM |  |  |
| CN(C)C(c1cccs1)C1CCC(NC(=O)c2cccnc2Sc2ccc(Cl)cc2)CC1 (stereo not drawn) [compound 218, 2-(4-chloro-phenylsulfanyl)-N-[4-(dimethylamino-thiophen-2-yl-methyl)-cyclohexyl]-nicotinamide] | 89% |  |  |  |
| CN(C)C(c1cccs1)C1CCC(NC(=O)Cc2ccc(Cl)cc2)CC1 (stereo not drawn) [compound 219, 2-(4-chloro-phenyl)-N-[4-(dimethylamino-thiophen-2-yl-methyl)-cyclohexyl]-acetamide] | 89% | 56 nM |  |  |
| Cc1ccc(Oc2ncccc2C(=O)NC2CCC(C(c3cccs3)N(C)C)CC2)cc1 (stereo not drawn) [compound 220, N-[4-(dimethylamino-thiophen-2-yl-methyl)-cyclohexyl]-2-p-tolyloxy-nicotinamide] | 88% | 150 nM |  |  |
| CC(C)S(=O)(=O)c1csc(C(=O)NC2CCC(C(c3cccs3)N(C)C)CC2)c1Cl (stereo not drawn) [compound 221, 3-chloro-4-(propan-2-sulfonyl)-thiophene-2-carboxylic acid [4-(dimethylamino-thiophen-2-yl-methyl)-cyclohexyl]-amide] | 88% | 29 nM |  |  |
| Cc1cc(C(=O)NC2CCC(C(c3ccccc3)N(C)C)CC2)n(C(C)(C)C)n1 (stereo not drawn) [compound 223, 2-tert-butyl-5-methyl-2H-pyrazole-3-carboxylic acid [4-(dimethylamino-phenyl-methyl)-cyclohexyl]-amide] | 88% | 20 nM |  |  |
| Cc1cc(C(=O)NC2CCC(C(c3cccs3)N(C)C)CC2)no1 (stereo not drawn) [compound 224, 5-Methyl-isoxazole-3-carboxylic acid [4-(dimethylamino-thiophen-2-yl-methyl)-cyclohexyl]-amide] | 87% |  |  |  |
| CN(C)C(c1cccs1)C1CCC(NC(=O)c2cncc(Br)c2)CC1 (stereo not drawn) [compound 225, 5-bromo-N-[4-(dimethylamino-thiophen-2-yl-methyl)-cyclohexyl]-nicotinamide] | 87% | 20 nM |  |  |

| Structure (SMILES) | inhibition at 1 µM | Ki | μ-Opioid receptor, % inhibition [1 μM] | μ-Opioid receptor, % inhibition [1 μM] (1 µM) |
| --- | --- | --- | --- | --- |
| CN(C)C(c1ccccc1)C1CCC(NC(=O)c2cccc3ccccc23)CC1 (stereo not drawn) [compound 226, naphthyl-1-carboxylic acid [4-(dimethylamino-phenyl-methyl)-cyclohexyl]-amide] |  | 58 nM | 87% |  |
| Cc1oc(-c2ccc(Cl)cc2)cc1C(=O)NC1CCC(C(c2cccs2)N(C)C)CC1 (stereo not drawn) [compound 229, 5-(4-chloro-phenyl)-2-methyl-furan-3-carboxylic acid [4-(dimethylamino-thiophen-2-yl-methyl)-cyclohexyl]-amide] | 86% | 39 nM |  |  |
| CC(Oc1ccccc1)C(=O)NC1CCC(C(c2ccccc2)N(C)C)CC1 (stereo not drawn) [compound 230, N-[4-(dimethylamino-phenyl-methyl)-cyclohexyl]-2-phenoxy-propionamide] | 86% | 21 nM |  |  |
| CN(C)C(c1cccc(F)c1)C1CCC(NC(=O)c2cc3ccccc3s2)CC1 (stereo not drawn) [compound 231, benzo[b]thiophene-2-carboxylic acid {4-[dimethylamino-(3-fluoro-phenyl)-methyl]-cyclohexyl}-amide] | 86% | 45 nM |  |  |
| Cc1oc(-c2ccc(Cl)cc2)cc1C(=O)NC1CCC(C(c2ccccc2)N(C)C)CC1 (stereo not drawn) [compound 232, 5-(4-chloro-phenyl)-2-methyl-furan-3-carboxylic acid [4-(dimethylamino-phenyl-methyl)-cyclohexyl]-amide] | 84% | 74 nM |  |  |
| Cc1c(S(=O)(=O)c2ccc(Cl)cc2)csc1C(=O)NC1CCC(C(c2ccccc2)N(C)C)CC1 (stereo not drawn) [compound 233, 4-(4-chloro-benzenesulfonyl)-3-methyl-thiophene-2-carboxylic acid [4-(dimethylamino-phenyl-methyl)-cyclohexyl]-amide] | 84% | 71 nM |  |  |
| CN(C)C(c1ccccc1)C1CCC(NC(=O)c2cncc(Br)c2)CC1 (stereo not drawn) [compound 235, 5-bromo-N-[4-(dimethylamino-phenyl-methyl)-cyclohexyl]-nicotinamide] | 84% | 61 nM |  |  |
| CN(C)C(c1ccccc1)C1CCC(NC(=O)C23CC4CC(CC(C4)C2)C3)CC1 (stereo not drawn) [compound 236, adamantane-1-carboxylic acid [4-(dimethylamino-phenyl-methyl)-cyclohexyl]-amide] | 83% | 63 nM |  |  |
| CN(C)C(c1ccccc1)C1CCC(NC(=O)c2csc(-c3ccccc3)n2)CC1 (stereo not drawn) [compound 237, 2-phenyl-thiazole-4-carboxylic acid [4-(dimethylamino-phenyl-methyl)-cyclohexyl]-amide] | 83% | 48 nM |  |  |
| Cc1nc(-c2ccccc2)sc1C(=O)NC1CCC(C(c2ccccc2)N(C)C)CC1 (stereo not drawn) [compound 238, 4-methyl-2-phenyl-thiazole-5-carboxylic acid [4-(dimethylamino-phenyl-methyl)-cyclohexyl]-amide] | 83% | 38 nM |  |  |
| CN(C)C(c1cccs1)C1CCC(NC(=O)c2csc(-c3ccc4c(c3)CCO4)n2)CC1 (stereo not drawn) [compound 239, 2-(2,3-dihydro-benzofuran-5-yl)-thiazole-4-carboxylic acid [4-(dimethylamino-thiophen-2-yl-methyl)-cyclohexyl]-amide] | 82% | 80 nM |  |  |
| CN(C)C(c1cccc(F)c1)C1CCC(NC(=O)Cc2ccccc2)CC1 (stereo not drawn) [compound 240, N-{4-[dimethylamino-(3-fluoro-phenyl)-methyl]-cyclohexyl}-2-phenyl-acetamide] | 82% | 51 nM |  |  |
| CN(C)C(CCc1ccccc1)C1CCC(NC(=O)c2cccc(Cl)c2)CC1 (stereo not drawn) [compound 241, 3-chloro-N-[4-(1-dimethylamino-3-phenyl-propyl)-cyclohexyl]-benzamide] | 82% | 68 nM |  |  |
| Cc1ccc(C(=O)NC2CCC(C(c3ccccc3)N(C)C)CC2)cc1 (stereo not drawn) [compound 242, N-[4-(dimethylamino-phenyl-methyl)-cyclohexyl]-4-methyl-benzamide] | 82% | 46 nM |  |  |
| CN(C)C(c1cccc(F)c1)C1CCC(NC(=O)c2cc(Cl)cc(Cl)c2)CC1 (stereo not drawn) [compound 243, 3,5-dichloro-N-{4-[dimethylamino-(3-fluoro-phenyl)-methyl]-cyclohexyl}-benzamide] | 82% | 25 nM |  |  |
| CN(C)C(c1ccccc1)C1CCC(NC(=O)c2c(F)ccc(F)c2F)CC1 (stereo not drawn) [compound 244, N-[4-(dimethylamino-phenyl-methyl)-cyclohexyl]-2,3,6-trifluoro-benzamide] | 82% | 30 nM |  |  |
| Cc1cc(C(=O)NC2CCC(C(c3ccccc3)N(C)C)CC2)n(C(C)(C)C)n1 (stereo not drawn) [compound 247, 2-tert-butyl-5-methyl-2H-pyrazole-3-carboxylic acid [4-(dimethylamino-phenyl-methyl)-cyclohexyl]-amide] |  | 36 nM |  | 82% |
| Cc1cccc(C(=O)NC2CCC(C(CCc3ccccc3)N(C)C)CC2)c1 (stereo not drawn) [compound 248, N-[4-(1-dimethylamino-3-phenyl-propyl)-cyclohexyl]-3-methyl-benzamide] | 81% | 88 nM |  |  |
